Assay results taken from ChEMBL document CHEMBL3885861, “Open TG-GATES”.

Organism: Rattus norvegicus
Test: Open TG-GATES - Regimen: Single
Type: toxicity, organism-based, Sprague-Dawley
Parameters: regimen Single, gender Male, age 6 weeks
Conditions: in vivo, po, 30 mg/kg, route gavage, dose level Low; for APTT / Bas / Eos / Fbg / Hb / Ht / Lym / MCH / MCHC / MCV / Mono / Neu / PT / Plat / RBC / Ret / WBC: tissue Blood; for KIDNEY_L / KIDNEY_R / KIDNEY_TOTAL: tissue Kidney; for LIVER: tissue Liver; for A/G / ALP / ALT / AST / BUN / CRE / Ca / Cl / DBIL / GLC / IP / K / LDH / Na / PL / RALB / TBIL / TC / TG / TP / gamma-GTP: tissue Plasma

CCc1oc2ccccc2c1C(=O)c1cc(I)c(O)c(I)c1 [BENZIODARONE]
TERMINAL_BW (3 h): 212.2 g
APTT (3 h): 16.6 s
Bas (3 h): 0%
Eos (3 h): 1%
Fbg (3 h): 202.4 mg/dL
Hb (3 h): 14 g/dL
Ht (3 h): 41.5%
Lym (3 h): 74.4%
MCH (3 h): 21.7 pg
MCHC (3 h): 33.8%
MCV (3 h): 64.3 fL
Mono (3 h): 10%
Neu (3 h): 14.8%
PT (3 h): 12 s
Plat (3 h): 117.6 x10_4/uL
RBC (3 h): 645.8 x10_4/ul
Ret (3 h): 8.1%
WBC (3 h): 97.8 x10_2/uL
KIDNEY_L (3 h): 1 g
KIDNEY_R (3 h): 1 g
KIDNEY_TOTAL (3 h): 2 g
LIVER (3 h): 10 g
A/G (3 h): 2.1
ALP (3 h): 939.2 IU/L
ALT (3 h): 33.8 IU/L
AST (3 h): 66.6 IU/L
BUN (3 h): 11 mg/dL
CRE (3 h): 0.5 mg/dL
Ca (3 h): 10.6 mg/dL
Cl (3 h): 103.4 meq/L
DBIL (3 h): 0 mg/dL
GLC (3 h): 192.8 mg/dL
IP (3 h): 9.7 mg/dL
K (3 h): 4.4 meq/L
LDH (3 h): 109.6 IU/L
Na (3 h): 141 meq/L
PL (3 h): 131.2 mg/dL
RALB (3 h): 3.7 g/dL
TBIL (3 h): 0.4 mg/dL
TC (3 h): 73 mg/dL
TG (3 h): 56.8 mg/dL
TP (3 h): 5.4 g/dL
gamma-GTP (3 h): 2 IU/L
TERMINAL_BW (6 h): 213.4 g
APTT (6 h): 16.4 s
Bas (6 h): 0%
Eos (6 h): 1%
Fbg (6 h): 218.2 mg/dL
Hb (6 h): 13.7 g/dL
Ht (6 h): 41%
Lym (6 h): 82%
MCH (6 h): 21.9 pg
MCHC (6 h): 33.4%
MCV (6 h): 65.6 fL
Mono (6 h): 7.8%
Neu (6 h): 9.8%
PT (6 h): 12 s
Plat (6 h): 108.5 x10_4/uL
RBC (6 h): 625.4 x10_4/ul
Ret (6 h): 10.8%
WBC (6 h): 102.6 x10_2/uL
KIDNEY_L (6 h): 1 g
KIDNEY_R (6 h): 1 g
KIDNEY_TOTAL (6 h): 1.9 g
LIVER (6 h): 9.8 g
A/G (6 h): 2.2
ALP (6 h): 728.8 IU/L
ALT (6 h): 31 IU/L
AST (6 h): 65.6 IU/L
BUN (6 h): 11.8 mg/dL
CRE (6 h): 0.5 mg/dL
Ca (6 h): 10.7 mg/dL
Cl (6 h): 105 meq/L
DBIL (6 h): 0.03 mg/dL
GLC (6 h): 183.4 mg/dL
IP (6 h): 9.8 mg/dL
K (6 h): 4.6 meq/L
LDH (6 h): 105.2 IU/L
Na (6 h): 141.6 meq/L
PL (6 h): 130.6 mg/dL
RALB (6 h): 3.7 g/dL
TBIL (6 h): 0.3 mg/dL
TC (6 h): 76.6 mg/dL
TG (6 h): 55.2 mg/dL
TP (6 h): 5.4 g/dL
gamma-GTP (6 h): 1.8 IU/L
TERMINAL_BW (9 h): 210.3 g
APTT (9 h): 17.9 s
Bas (9 h): 0%
Eos (9 h): 1%
Fbg (9 h): 203.2 mg/dL
Hb (9 h): 13.5 g/dL
Ht (9 h): 40.3%
Lym (9 h): 76.8%
MCH (9 h): 21.7 pg
MCHC (9 h): 33.6%
MCV (9 h): 64.5 fL
Mono (9 h): 8%
Neu (9 h): 14.6%
PT (9 h): 12 s
Plat (9 h): 110.8 x10_4/uL
RBC (9 h): 624.8 x10_4/ul
Ret (9 h): 8.2%
WBC (9 h): 78 x10_2/uL
KIDNEY_L (9 h): 0.9 g
KIDNEY_R (9 h): 1 g
KIDNEY_TOTAL (9 h): 1.9 g
LIVER (9 h): 9 g
A/G (9 h): 2.2
ALP (9 h): 748.4 IU/L
ALT (9 h): 28.8 IU/L
AST (9 h): 58.6 IU/L
BUN (9 h): 11.4 mg/dL
CRE (9 h): 0.4 mg/dL
Ca (9 h): 10.4 mg/dL
Cl (9 h): 105.4 meq/L
DBIL (9 h): 0.086 mg/dL
GLC (9 h): 198 mg/dL
IP (9 h): 10.4 mg/dL
K (9 h): 4.5 meq/L
LDH (9 h): 88.4 IU/L
Na (9 h): 142.8 meq/L
PL (9 h): 129.2 mg/dL
RALB (9 h): 3.7 g/dL
TBIL (9 h): 0.3 mg/dL
TC (9 h): 67.6 mg/dL
TG (9 h): 48.6 mg/dL
TP (9 h): 5.5 g/dL
gamma-GTP (9 h): 0.8 IU/L
TERMINAL_BW (24 h): 226.7 g
APTT (24 h): 17.3 s
Bas (24 h): 0%
Eos (24 h): 1%
Fbg (24 h): 206.6 mg/dL
Hb (24 h): 13.4 g/dL
Ht (24 h): 39.2%
Lym (24 h): 76.4%
MCH (24 h): 22.1 pg
MCHC (24 h): 34.2%
MCV (24 h): 64.8 fL
Mono (24 h): 7.4%
Neu (24 h): 15%
PT (24 h): 11.9 s
Plat (24 h): 117.8 x10_4/uL
RBC (24 h): 605 x10_4/ul
Ret (24 h): 8.1%
WBC (24 h): 94 x10_2/uL
KIDNEY_L (24 h): 1 g
KIDNEY_R (24 h): 1 g
KIDNEY_TOTAL (24 h): 2 g
LIVER (24 h): 11.1 g
A/G (24 h): 2.1
ALP (24 h): 882.8 IU/L
ALT (24 h): 34.6 IU/L
AST (24 h): 70.8 IU/L
BUN (24 h): 17.4 mg/dL
CRE (24 h): 0.6 mg/dL
Ca (24 h): 10.6 mg/dL
Cl (24 h): 104.6 meq/L
DBIL (24 h): 0.006 mg/dL
GLC (24 h): 197.2 mg/dL
IP (24 h): 7.4 mg/dL
K (24 h): 4.7 meq/L
LDH (24 h): 95.8 IU/L
Na (24 h): 141 meq/L
PL (24 h): 138.2 mg/dL
RALB (24 h): 3.8 g/dL
TBIL (24 h): 0.3 mg/dL
TC (24 h): 73.2 mg/dL
TG (24 h): 81.6 mg/dL
TP (24 h): 5.6 g/dL
gamma-GTP (24 h): 1 IU/L
